Values of other authors as cited in paper PMC8148172, “Evaluation of a Keratin 1 Targeting Peptide-Doxorubicin Conjugate in a Mouse Model of Triple-Negative Breast Cancer” (Pharmaceutics, 2021).

Legend:
[1] = design: method as in PMID 27370248, PMID 16515518; conditions: as conjugate with circulating albumin
TNBC = test system: TNBC; design: method as in PMID 28520410

## COc1cccc2c1C(=O)c1c(O)c3c(c(O)c1C2=O)C[C@@](O)(/C(CO)=N/NC(=O)CCCCCN1C(=O)C=CC1=O)C[C@@H]3O[C@H]1C[C@H](N)[C@H](O)[C@H](C)O1 [Aldox, aldoxorubicin]
[1]
  greater doses of Dox administered with minimal cardiotoxicity: 3–4 ×

## N- to C-terminal cyclized WXEAAYQkFL [cyclic analogue of 18-4]
TNBC
  targeting of TNBC relative to linear 18-4 peptide: 2–3 fold
